Measurements from ChEMBL document CHEMBL4177690, “(E)-3-(3,4,5-Trimethoxyphenyl)-1-(pyridin-4-yl)prop-2-en-1-one, a heterocyclic chalcone is a potent and selective CYP1A1 inhibitor and cancer chemopreventive agent” (Bioorg Med Chem Lett, 2017).

target: T1, Cytochrome P450 1A1 (Homo sapiens, UniProt P04798); test: Inhibition of human CYP1A1 expressed in yeast microsomal membranes using 7-ethoxyresorufin as substrate measured after 10 mins by fluorescence assay; type: cell membranes
T1 sequence (P04798 whole entry): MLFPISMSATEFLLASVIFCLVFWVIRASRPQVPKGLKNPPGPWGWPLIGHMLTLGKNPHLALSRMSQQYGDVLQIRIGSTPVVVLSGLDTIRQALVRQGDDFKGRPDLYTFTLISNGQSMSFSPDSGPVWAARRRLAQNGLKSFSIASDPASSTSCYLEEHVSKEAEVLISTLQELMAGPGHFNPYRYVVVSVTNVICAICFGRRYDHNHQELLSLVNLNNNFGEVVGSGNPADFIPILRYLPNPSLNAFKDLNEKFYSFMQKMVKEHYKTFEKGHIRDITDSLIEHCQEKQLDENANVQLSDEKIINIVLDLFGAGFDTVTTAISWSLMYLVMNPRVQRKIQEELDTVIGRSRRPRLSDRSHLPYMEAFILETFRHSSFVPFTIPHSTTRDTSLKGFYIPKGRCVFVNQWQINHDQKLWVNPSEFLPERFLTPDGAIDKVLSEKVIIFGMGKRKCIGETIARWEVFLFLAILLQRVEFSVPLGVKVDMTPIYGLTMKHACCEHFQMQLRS

| SMILES | IC50 |
| --- | --- |
| O=C(/C=C/c1cccc2ccccc12)c1ccncc1 | 510 nM |
| CCOc1c(OC)cc(/C=C/C(=O)c2ccncc2)cc1OC | 230 nM |

target: T2, Cytochrome P450 1B1 (Homo sapiens, UniProt Q16678); test: Inhibition of human CYP1B1 expressed in yeast microsomal membranes using 7-ethoxyresorufin as substrate measured after 10 mins by fluorescence assay; type: cell membranes
T2 sequence (Q16678 whole entry): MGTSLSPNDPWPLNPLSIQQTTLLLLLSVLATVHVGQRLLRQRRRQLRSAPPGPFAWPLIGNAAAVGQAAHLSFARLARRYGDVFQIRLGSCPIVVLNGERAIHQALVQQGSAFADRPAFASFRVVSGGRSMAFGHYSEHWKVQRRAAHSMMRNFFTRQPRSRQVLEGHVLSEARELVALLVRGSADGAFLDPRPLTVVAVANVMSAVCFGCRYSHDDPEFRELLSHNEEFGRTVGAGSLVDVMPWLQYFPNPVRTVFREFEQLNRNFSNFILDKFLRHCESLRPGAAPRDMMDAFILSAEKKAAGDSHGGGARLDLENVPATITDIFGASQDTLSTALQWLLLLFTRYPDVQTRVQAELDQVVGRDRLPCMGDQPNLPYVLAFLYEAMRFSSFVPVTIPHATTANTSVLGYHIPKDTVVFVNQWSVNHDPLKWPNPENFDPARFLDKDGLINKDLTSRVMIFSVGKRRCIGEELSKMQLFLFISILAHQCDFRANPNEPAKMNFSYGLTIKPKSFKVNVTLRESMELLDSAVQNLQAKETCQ

| SMILES | IC50 |
| --- | --- |
| O=C(/C=C/c1cccc2ccccc12)c1ccncc1 | 650 nM |
| CCOc1c(OC)cc(/C=C/C(=O)c2ccncc2)cc1OC | 698 nM |

target: T3, Cytochrome P450 1A2 (Homo sapiens, UniProt P05177); test: Inhibition of human CYP1A2 expressed in yeast microsomal membranes using 3-cyano-7-ethoxycoumarin as substrate measured after 10 mins by fluorescence assay; type: ADME, cell membranes, Microsomal Membrane
T3 sequence (P05177 whole entry): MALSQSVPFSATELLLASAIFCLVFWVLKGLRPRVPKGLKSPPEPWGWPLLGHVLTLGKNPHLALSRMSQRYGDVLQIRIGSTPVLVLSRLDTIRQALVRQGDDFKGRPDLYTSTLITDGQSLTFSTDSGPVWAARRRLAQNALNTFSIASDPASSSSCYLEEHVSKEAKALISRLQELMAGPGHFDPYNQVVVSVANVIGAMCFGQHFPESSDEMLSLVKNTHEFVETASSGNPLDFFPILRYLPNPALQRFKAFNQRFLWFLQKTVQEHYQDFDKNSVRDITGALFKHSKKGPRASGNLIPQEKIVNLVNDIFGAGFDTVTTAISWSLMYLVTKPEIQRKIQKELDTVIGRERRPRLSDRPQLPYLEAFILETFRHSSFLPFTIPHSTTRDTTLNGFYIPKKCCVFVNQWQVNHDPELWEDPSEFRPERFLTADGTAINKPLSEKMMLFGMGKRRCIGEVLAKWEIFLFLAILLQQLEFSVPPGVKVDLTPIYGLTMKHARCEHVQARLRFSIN

| SMILES | IC50 |
| --- | --- |
| O=C(/C=C/c1cccc2ccccc12)c1ccncc1 | 35 nM |
| CCOc1c(OC)cc(/C=C/C(=O)c2ccncc2)cc1OC | 2580 nM |

target: T4, Cytochrome P450 2D6 (Homo sapiens, UniProt P10635); test: Inhibition of human CYP2D6 expressed in yeast microsomal membranes using 7-ethoxy-methyloxy-3-cyanocoumarin as substrate measured after 10 mins by fluorescence assay; type: ADME, cell membranes, Microsomal Membrane
T4 sequence (P10635 whole entry): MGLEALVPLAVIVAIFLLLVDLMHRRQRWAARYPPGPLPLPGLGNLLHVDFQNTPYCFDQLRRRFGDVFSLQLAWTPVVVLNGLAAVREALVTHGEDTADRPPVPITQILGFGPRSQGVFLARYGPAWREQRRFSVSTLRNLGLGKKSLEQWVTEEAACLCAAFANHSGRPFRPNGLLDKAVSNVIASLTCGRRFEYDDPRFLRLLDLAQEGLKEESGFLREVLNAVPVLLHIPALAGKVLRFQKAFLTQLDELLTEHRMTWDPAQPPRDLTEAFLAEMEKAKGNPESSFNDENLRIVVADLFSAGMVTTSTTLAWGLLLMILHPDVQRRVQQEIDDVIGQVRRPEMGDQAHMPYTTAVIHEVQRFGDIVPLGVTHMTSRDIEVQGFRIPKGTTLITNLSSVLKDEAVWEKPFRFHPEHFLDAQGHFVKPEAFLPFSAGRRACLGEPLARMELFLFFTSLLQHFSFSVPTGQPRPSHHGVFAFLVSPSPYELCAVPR

| SMILES | IC50 |
| --- | --- |
| O=C(/C=C/c1cccc2ccccc12)c1ccncc1 | 18000 nM |
| CCOc1c(OC)cc(/C=C/C(=O)c2ccncc2)cc1OC | 12000 nM |

target: T5, Cytochrome P450 2C9 (Homo sapiens, UniProt P11712); test: Inhibition of human CYP2C9 expressed in yeast microsomal membranes using 3-cyano-7-ethoxycoumarin as substrate measured after 10 mins by fluorescence assay; type: ADME, cell membranes, Microsomal Membrane
T5 sequence (P11712 whole entry): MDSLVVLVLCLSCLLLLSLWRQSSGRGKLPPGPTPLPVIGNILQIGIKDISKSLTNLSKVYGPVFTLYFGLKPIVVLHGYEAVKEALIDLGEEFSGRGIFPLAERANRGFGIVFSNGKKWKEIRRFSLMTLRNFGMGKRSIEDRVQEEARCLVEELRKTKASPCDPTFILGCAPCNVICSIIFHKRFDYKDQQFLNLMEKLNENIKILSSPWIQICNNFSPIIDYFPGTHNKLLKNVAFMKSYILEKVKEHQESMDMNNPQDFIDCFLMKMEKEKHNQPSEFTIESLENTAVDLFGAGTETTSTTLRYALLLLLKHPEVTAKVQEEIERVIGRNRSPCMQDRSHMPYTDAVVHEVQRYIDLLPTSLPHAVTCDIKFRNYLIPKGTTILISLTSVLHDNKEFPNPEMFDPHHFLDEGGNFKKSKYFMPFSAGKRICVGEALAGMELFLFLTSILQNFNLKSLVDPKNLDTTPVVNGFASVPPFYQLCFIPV

| SMILES | IC50 |
| --- | --- |
| O=C(/C=C/c1cccc2ccccc12)c1ccncc1 | > 20000 nM |
| CCOc1c(OC)cc(/C=C/C(=O)c2ccncc2)cc1OC | > 20000 nM |

target: T6, Cytochrome P450 2C19 (Homo sapiens, UniProt P33261); test: Inhibition of human CYP2C19 expressed in yeast microsomal membranes using 3-cyano-7-ethoxycoumarin as substrate measured after 10 mins by fluorescence assay; type: ADME, cell membranes, Microsomal Membrane
T6 sequence (P33261 whole entry): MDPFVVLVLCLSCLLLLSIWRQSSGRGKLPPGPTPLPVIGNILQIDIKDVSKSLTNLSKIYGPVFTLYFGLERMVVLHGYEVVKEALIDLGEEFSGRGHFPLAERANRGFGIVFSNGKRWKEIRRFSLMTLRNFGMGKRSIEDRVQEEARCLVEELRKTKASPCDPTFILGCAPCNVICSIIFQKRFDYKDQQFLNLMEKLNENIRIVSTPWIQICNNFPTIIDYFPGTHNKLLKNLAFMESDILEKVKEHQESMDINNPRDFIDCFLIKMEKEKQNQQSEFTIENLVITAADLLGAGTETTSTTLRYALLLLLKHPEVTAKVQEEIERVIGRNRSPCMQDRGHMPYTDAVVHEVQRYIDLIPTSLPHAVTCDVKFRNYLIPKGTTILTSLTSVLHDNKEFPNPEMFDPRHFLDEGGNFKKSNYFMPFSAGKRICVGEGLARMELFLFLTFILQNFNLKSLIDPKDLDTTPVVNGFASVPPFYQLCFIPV

| SMILES | IC50 |
| --- | --- |
| O=C(/C=C/c1cccc2ccccc12)c1ccncc1 | > 20000 nM |
| CCOc1c(OC)cc(/C=C/C(=O)c2ccncc2)cc1OC | > 20000 nM |

target: T7, Cytochrome P450 3A4 (Homo sapiens, UniProt P08684); test: Inhibition of human CYP3A4 expressed in yeast microsomal membranes using dibenzylfluorescein as substrate measured after 10 mins by fluorescence assay; type: ADME, cell membranes, Microsomal Membrane
T7 sequence (P08684 whole entry): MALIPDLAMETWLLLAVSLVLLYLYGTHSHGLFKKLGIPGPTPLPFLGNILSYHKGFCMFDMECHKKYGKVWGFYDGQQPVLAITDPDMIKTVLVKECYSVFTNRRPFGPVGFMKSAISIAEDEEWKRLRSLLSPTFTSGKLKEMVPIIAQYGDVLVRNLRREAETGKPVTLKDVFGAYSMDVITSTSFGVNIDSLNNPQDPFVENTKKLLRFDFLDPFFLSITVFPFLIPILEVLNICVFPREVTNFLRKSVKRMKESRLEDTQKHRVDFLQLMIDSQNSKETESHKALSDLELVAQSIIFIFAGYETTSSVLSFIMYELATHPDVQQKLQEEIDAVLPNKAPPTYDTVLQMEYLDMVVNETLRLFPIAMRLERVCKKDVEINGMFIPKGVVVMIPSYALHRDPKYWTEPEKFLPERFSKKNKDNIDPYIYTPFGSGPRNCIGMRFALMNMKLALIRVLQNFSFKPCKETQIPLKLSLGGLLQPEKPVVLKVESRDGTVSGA

| SMILES | IC50 |
| --- | --- |
| O=C(/C=C/c1cccc2ccccc12)c1ccncc1 | > 20000 nM |
| CCOc1c(OC)cc(/C=C/C(=O)c2ccncc2)cc1OC | > 20000 nM |

target: T1, Cytochrome P450 1A1; test: Inhibition of recombinant human CYP1A1 expressed in HEK293 cells using 7-ethoxyresorufin as substrate pretreated for 30 mins followed by substrate addition measured for 60 mins by fluorescence assay; type: cell-based

| SMILES | IC50 |
| --- | --- |
| O=C(/C=C/c1cccc2ccccc12)c1ccncc1 | 550 nM |
| CCOc1c(OC)cc(/C=C/C(=O)c2ccncc2)cc1OC | 280 nM |

target: T2, Cytochrome P450 1B1; test: Inhibition of recombinant human CYP1B1 expressed in HEK293 cells using 7-ethoxyresorufin as substrate pretreated for 30 mins followed by substrate addition measured for 60 mins by fluorescence assay; type: cell-based

| SMILES | IC50 |
| --- | --- |
| O=C(/C=C/c1cccc2ccccc12)c1ccncc1 | 750 nM |
| CCOc1c(OC)cc(/C=C/C(=O)c2ccncc2)cc1OC | 610 nM |

target: T3, Cytochrome P450 1A2; test: Inhibition of recombinant human CYP1A2 expressed in HEK293 cells using 3-cyano-7-ethoxycoumarin as substrate pretreated for 30 mins followed by substrate addition measured for 60 mins by fluorescence assay; type: ADME

| SMILES | IC50 |
| --- | --- |
| O=C(/C=C/c1cccc2ccccc12)c1ccncc1 | 28 nM |
| CCOc1c(OC)cc(/C=C/C(=O)c2ccncc2)cc1OC | 2210 nM |

target: T4, Cytochrome P450 2D6; test: Inhibition of recombinant human CYP2D6 expressed in HEK293 cells using 7-ethoxy-methyloxy-3-cyanocoumarin as substrate pretreated for 30 mins followed by substrate addition measured for 60 mins by fluorescence assay; type: ADME, cell-based

| SMILES | IC50 |
| --- | --- |
| O=C(/C=C/c1cccc2ccccc12)c1ccncc1 | > 10000 nM |
| CCOc1c(OC)cc(/C=C/C(=O)c2ccncc2)cc1OC | > 10000 nM |

target: T5, Cytochrome P450 2C9; test: Inhibition of recombinant human CYP2C9 expressed in HEK293 cells using 3-cyano-7-ethoxycoumarin as substrate pretreated for 30 mins followed by substrate addition measured for 60 mins by fluorescence assay; type: ADME

| SMILES | IC50 |
| --- | --- |
| O=C(/C=C/c1cccc2ccccc12)c1ccncc1 | > 10000 nM |
| CCOc1c(OC)cc(/C=C/C(=O)c2ccncc2)cc1OC | > 10000 nM |

target: T6, Cytochrome P450 2C19; test: Inhibition of recombinant human CYP2C19 expressed in HEK293 cells using 3-cyano-7-ethoxycoumarin as substrate pretreated for 30 mins followed by substrate addition measured for 60 mins by fluorescence assay; type: ADME

| SMILES | IC50 |
| --- | --- |
| O=C(/C=C/c1cccc2ccccc12)c1ccncc1 | > 10000 nM |
| CCOc1c(OC)cc(/C=C/C(=O)c2ccncc2)cc1OC | > 10000 nM |

target: T7, Cytochrome P450 3A4; test: Inhibition of recombinant human CYP3A4 expressed in HEK293 cells using dibenzylfluorescein as substrate pretreated for 30 mins followed by substrate addition measured for 60 mins by fluorescence assay; type: ADME

| SMILES | IC50 |
| --- | --- |
| O=C(/C=C/c1cccc2ccccc12)c1ccncc1 | > 10000 nM |
| CCOc1c(OC)cc(/C=C/C(=O)c2ccncc2)cc1OC | > 10000 nM |
